Literature values in US20030165581A1, “Compositions for treating diabetes mellitus, methods of use and manufacturing process of the same” (priority 2002, published 2003).
Read-outs that look alike come from different tables or passages of the source.

Columns and labels:
Type II diabetic rats = conditions: supplementation with corosolic acid; control group showed elevation
[1] = system: subjects with mild Type II diabetes; conditions: for average blood glucose level: soft gelatin formulation, 48 mg daily, control 168.3
[2] = system: hereditary Type II diabetic mice
[3] = system: human subjects with mild Type II diabetes
[4] = system: subjects with mild Type II diabetes; conditions: for drop of average blood glucose level compared to placebo: dry powder base, two-piece hard gelatin capsule; for drop of average blood glucose level: oil based soft gelatin capsule, two weeks
[5] = system: rats with experimentally induced diabetes; conditions: reduced from 300 mg/dL
mice = conditions: oral dose
[6] = system: Ehrlich ascites tumor cells; conditions: time course of glucose uptake
[7] = supplemented with corosolic acid

C[C@H]1[C@H](C)CC[C@]2(C(=O)O)CC[C@]3(C)C(=CC[C@@H]4[C@@]5(C)C[C@@H](O)[C@H](O)C(C)(C)[C@@H]5CC[C@]43C)[C@H]12 [corosolic acid]
glucose levels (Type II diabetic rats): decrease in glucose levels
blood glucose level during washout ([1]; 15 days of washout after soft gelatin treatment): 131.7 mg/dL
blood glucose level during washout ([1]; 30 days of washout after soft gelatin treatment): 153.2 mg/dL
blood glucose level during washout ([1]; 45 days of washout after soft gelatin treatment): 168.2 mg/dL
decline in blood glucose levels after a meal ([1]; compared to untreated (diabetic) control conditions): sharper decline
weight loss ([1]; dry-powder based formulation): no weight loss
average weight loss ([1]; oil-based formulation in a soft gelatin capsule): 3.2 pounds
adverse effects ([1]; oral dose, cross-over study): no signs of adverse effects
average blood glucose level ([1]; 15th day of treatment): 127.2 mg/deciliter
average blood glucose level ([1]; 30th day of treatment): 115.1 mg/deciliter
memory effect after termination of the treatment ([1]; washout period blood glucose levels): up to four
increase of plasma glucose levels ([2]; diet including corosolic acid for five weeks vs control diet): completely suppressed
level of serum insulin [2, 7]: lowered
total plasma cholesterol [2, 7]: lowered
urinary excreted glucose [2, 7]: lowered
adverse effects ([3]; short-term (four weeks) treatment): no signs of adverse effects
blood glucose levels ([3]; tablet after each meal three times daily, four weeks, vs placebo): effective in reducing blood glucose levels
drop of average blood glucose level compared to placebo ([4]; 16 mg per day): 3.18%
drop of average blood glucose level compared to placebo ([4]; 32 mg per day): 6.5%
drop of average blood glucose level compared to placebo ([4]; 48 mg per day): 20.2%
drop of average blood glucose level ([4]; 16 mg per day): 4.9%
drop of average blood glucose level ([4]; 32 mg per day): 10.7%
drop of average blood glucose level ([4]; 48 mg per day): 31.9%
blood sugar level after corosolic acid [5]: 150 mg/dL
blood sugar levels (mice): reduces blood sugar levels
time of peak reduction after administration (normal rabbits; after large doses): two to four
blood sugar reduction (normal rabbits; large doses): more than 57 mg per 100 mL blood
time blood sugar remained low (normal rabbits; repetition of the first dose after two more hours): more than 5 hours
glucose transport-stimulating activity (glucose uptake by Ehrlich cells) [6]: significant glucose transport-stimulating activity
